Measured values reported in paper PMC10447463, “Data-mining unveils structure–property–activity correlation of viral infectivity enhancing self-assembling peptides” (Nature Communications, 2023).
Read-outs that look alike come from different tables or passages of the source.

Tests used:
[1] = Turbidity, derived count rate of scattered light; format: physicochemical; settings: for Count Rate / kcps: derived count rate of scattered light at 633 nm, 173°, from zeta-potential measurement, 0.1 mg/mL in 1 mM KCl after 1 d at 1 mg/mL in PBS, turbidity / microscopic aggregation, mean of triplicate
Outline: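 One-day room-temperature aggregation at 1 mg/mL in PBS (pH 7.4) preceded measurement; samples then went into 1 mM KCl. Triplicates per sample, two independent experiments averaged.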

[2] = format: physicochemical; settings: for ThT Cat. / ThT-Fluorescence (categorical): ThT-active if fluorescence at least twice the control
Outline: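 Fibrils (1 mg/mL solution) were mixed with 50 µM ThT in PBS for 15 min at RT, and fluorescence was read at λex 440/λem 488 nm against a PBS blank, as a triplicate mean ± SD. Zeta potential came from electrophoretic mobility (Smoluchowski) after 1 d aggregation at 1 mg/mL in PBS pH 7.4, diluted into 1 mM KCl.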

[3] = Log10 of derived count rate of scattered light (turbidity)
[4] = log10 of derived count rate of scattered light (turbidity)
[5] = logarithm of count rate in kcps
[6] = turbidity, Log10 of derived count rate of scattered light, Figure 3A source data
[7] = ThT fluorescence category, 1 if Rel. ThT >2
[8] = turbidity, log10 of derived count rate of scattered light

Substance | Log10 Count Rate [1, 3] | Count Rate / kcps [1] | Log10 Count Rate [1, 4] | Log10 Count Rate [1, 5] | Log10 Count Rate [1, 6] | Tht category (> 2 to blank = +) ([2]; Fig S10 panel D) | ThT Cat, ([2]; ThT category, 1 if Rel. ThT >2) | ThT Cat. [2, 7] | ThT Cat. / ThT-Fluorescence (categorical) [2] | Log10 Count Rate [1, 8] | Tht category (> 2 to blank = +) ([2]; FigS12 panel A) | ThT Cat, ([2]; FigS12 panel B) | ThT Cat. ([2]; ThT category, 1 if Rel. ThT >2) | ThT Cat. ([2]; Fig S10 panel E) | Count Rate ([1]; T0, mean of n = 3) | Count Rate ([1]; T2m, mean of n = 3)
CKWKWQW | 3.876 | 7511 kcps | 3.876 | 3.876 | 3.876 | 0 (ThT-inactive (N-Fold <2)) | 0 (ThT-inactive (N-Fold <2)) | 0 (ThT-inactive (N-Fold <2)) | 0 (ThT-inactive (N-Fold <2)) | – | – | – | – | – | – | –
FKFDKFKFDK | 1.6545 | 45 kcps | – | – | 1.6545 | 0 (ThT-inactive (N-Fold <2)) | 0 (ThT-inactive (N-Fold <2)) | – | 0 (ThT-inactive (N-Fold <2)) | 1.6545 | 0 (ThT-inactive (N-Fold <2)) | 0 (ThT-inactive (N-Fold <2)) | 0 (ThT-inactive (N-Fold <2)) | – | – | –
QCKFKFQFNMWQ | 3.082 | 1208 kcps | – | – | 3.082 | 0 (ThT-inactive (N-Fold <2)) | 0 (ThT-inactive (N-Fold <2)) | – | 0 (ThT-inactive (N-Fold <2)) | 3.082 | – | – | 0 (ThT-inactive (N-Fold <2)) | – | – | –
KWKWQW | 3.189 | 1545 kcps | 3.189 | 3.189 | 3.189 | 0 (ThT-inactive (N-Fold <2)) | 0 (ThT-inactive (N-Fold <2)) | 0 (ThT-inactive (N-Fold <2)) | 0 (ThT-inactive (N-Fold <2)) | – | 0 (ThT-inactive (N-Fold <2)) | 0 (ThT-inactive (N-Fold <2)) | – | – | – | –
KIKIQIN | 1.638 | 43 kcps | – | 1.638 | 1.638 | 0 (ThT-inactive (N-Fold <2)) | 0 (ThT-inactive (N-Fold <2)) | 0 (ThT-inactive (N-Fold <2)) | 0 (ThT-inactive (N-Fold <2)) | 1.638 | – | – | – | – | – | –
KFKFQFNMWQ | 2.866 | 735 kcps | – | 2.866 | 2.866 | 1 (ThT. Cat is 1, if Rel. ThT >2) | 1 (ThT. Cat is 1, if Rel. ThT >2) | – | 1 (ThT. Cat is 1, if Rel. ThT >2) | 2.866 | – | – | 1 (ThT. Cat is 1, if Rel. ThT >2) | 1 (ThT. Cat is 1, if Rel. ThT >2) | – | –
CKFKFQFNMWQ | 2.154 | 143 kcps | – | – | 2.154 | 1 (ThT. Cat is 1, if Rel. ThT >2) | 1 (ThT. Cat is 1, if Rel. ThT >2) | – | 1 (ThT. Cat is 1, if Rel. ThT >2) | 2.154 | – | – | 1 (ThT. Cat is 1, if Rel. ThT >2) | 1 (ThT. Cat is 1, if Rel. ThT >2) | – | –
CRFRFQF | 2.592 | 391 kcps | – | – | 2.592 | 1 (ThT. Cat is 1, if Rel. ThT >2) | 1 (ThT. Cat is 1, if Rel. ThT >2) | – | 1 (ThT. Cat is 1, if Rel. ThT >2) | 2.592 | – | – | 1 (ThT. Cat is 1, if Rel. ThT >2) | 1 (ThT. Cat is 1, if Rel. ThT >2) | – | –
KIKIQIAMWQ | 2.733 | 541 kcps | – | – | 2.733 | 1 (ThT. Cat is 1, if Rel. ThT >2) | 1 (ThT. Cat is 1, if Rel. ThT >2) | 1 (ThT. Cat is 1, if Rel. ThT >2) | 1 (ThT. Cat is 1, if Rel. ThT >2) | 2.733 | – | – | – | – | – | –
QCKIKIQINMWQ | 3.918 | 8271 kcps | – | 3.918 | 3.918 | 1 (ThT. Cat is 1, if Rel. ThT >2) | 1 (ThT. Cat is 1, if Rel. ThT >2) | – | 1 (ThT. Cat is 1, if Rel. ThT >2) | 3.918 | – | – | 1 (ThT. Cat is 1, if Rel. ThT >2) | 1 (ThT. Cat is 1, if Rel. ThT >2) | 9558.2 kcps | 6927 kcps
MDQMDQMDQMDQMDQ | 0.9823 | 10 kcps | – | – | 0.9823 | 0 (ThT-inactive (N-Fold <2)) | 0 (ThT-inactive (N-Fold <2)) | – | 0 (ThT-inactive (N-Fold <2)) | 0.9823 | 0 (ThT-inactive (N-Fold <2)) | 0 (ThT-inactive (N-Fold <2)) | 0 (ThT-inactive (N-Fold <2)) | 0 (ThT-inactive (N-Fold <2)) | – | –
EFEFQF | 2.608 | 405 kcps | 2.608 | – | 2.608 | 1 (ThT. Cat is 1, if Rel. ThT >2) | 1 (ThT. Cat is 1, if Rel. ThT >2) | 1 (ThT. Cat is 1, if Rel. ThT >2) | 1 (ThT. Cat is 1, if Rel. ThT >2) | – | 1 (ThT. Cat is 1, if Rel. ThT >2) | 1 (ThT. Cat is 1, if Rel. ThT >2) | – | – | – | –
TKTLTKTL | 2.711 | 515 kcps | – | – | 2.711 | 0 (ThT-inactive (N-Fold <2)) | 0 (ThT-inactive (N-Fold <2)) | – | 0 (ThT-inactive (N-Fold <2)) | 2.711 | 0 (ThT-inactive (N-Fold <2)) | 0 (ThT-inactive (N-Fold <2)) | 0 (ThT-inactive (N-Fold <2)) | – | – | –
PPFHPPPFHP | 1.772 | 59 kcps | – | – | 1.772 | 0 (ThT-inactive (N-Fold <2)) | 0 (ThT-inactive (N-Fold <2)) | – | 0 (ThT-inactive (N-Fold <2)) | 1.772 | 0 (ThT-inactive (N-Fold <2)) | 0 (ThT-inactive (N-Fold <2)) | 0 (ThT-inactive (N-Fold <2)) | – | – | –
CKYKYQY | 3.026 | 1061 kcps | 3.026 | – | 3.026 | 1 (ThT. Cat is 1, if Rel. ThT >2) | 1 (ThT. Cat is 1, if Rel. ThT >2) | 1 (ThT. Cat is 1, if Rel. ThT >2) | 1 (ThT. Cat is 1, if Rel. ThT >2) | – | 1 (ThT. Cat is 1, if Rel. ThT >2) | 1 (ThT. Cat is 1, if Rel. ThT >2) | – | – | – | –
HIHIQIC | 2.416 | 261 kcps | – | 2.416 | 2.416 | 1 (ThT. Cat is 1, if Rel. ThT >2) | 1 (ThT. Cat is 1, if Rel. ThT >2) | – | 1 (ThT. Cat is 1, if Rel. ThT >2) | 2.416 | – | – | 1 (ThT. Cat is 1, if Rel. ThT >2) | 1 (ThT. Cat is 1, if Rel. ThT >2) | – | –
QCKFKFQF | 3.426 | 2669 kcps | – | – | 3.426 | 1 (ThT. Cat is 1, if Rel. ThT >2) | 1 (ThT. Cat is 1, if Rel. ThT >2) | – | 1 (ThT. Cat is 1, if Rel. ThT >2) | 3.426 | – | – | 1 (ThT. Cat is 1, if Rel. ThT >2) | – | – | –
KFKQFFNMWQ | 2.375 | 237 kcps | – | – | 2.375 | 0 (ThT-inactive (N-Fold <2)) | 0 (ThT-inactive (N-Fold <2)) | – | 0 (ThT-inactive (N-Fold <2)) | 2.375 | 0 (ThT-inactive (N-Fold <2)) | 0 (ThT-inactive (N-Fold <2)) | 0 (ThT-inactive (N-Fold <2)) | – | – | –
KIKQIINM | 3.395 | 2481 kcps | – | – | 3.395 | 0 (ThT-inactive (N-Fold <2)) | 0 (ThT-inactive (N-Fold <2)) | 0 (ThT-inactive (N-Fold <2)) | 0 (ThT-inactive (N-Fold <2)) | 3.395 | – | – | – | 0 (ThT-inactive (N-Fold <2)) | – | –
MKFM | 2.1165 | 131 kcps | – | – | 2.1165 | 0 (ThT-inactive (N-Fold <2)) | 0 (ThT-inactive (N-Fold <2)) | – | 0 (ThT-inactive (N-Fold <2)) | 2.1165 | 0 (ThT-inactive (N-Fold <2)) | 0 (ThT-inactive (N-Fold <2)) | 0 (ThT-inactive (N-Fold <2)) | – | – | –
